Assay results reported in US12606529B2, “Sulfur and amide tropolone inhibitors of nucleotidyl transferases and uses therefor” (Saint Louis University, priority 2019, dated 2026).
Values after ≈ are worked out from the molar mass of the structure shown.

Legend:
[1] = system: C. neoformans var. grubii, KN99; assay: C. neoformans growth inhibition assay (limiting dilution); type: cell-based, Cryptococcus neoformans; details: Cryptococcus neoformans, 48 h, Table 2 amides; 48 h, 35° C., tested 0.19 to 50 μM; read-out: C. neoformans MIC80
Description: Cell types used for C. neoformans studies. All inhibition assays were performed with C. neoformans var. grubii, KN99 (serotype A, MAT). Two clinical strains of C. neoformans var. grubii, serotype A, were provided by Tamara Doering and Andre Spec. […] Cells were diluted to OD650 0.001 in YNB-02 02 (0.67% yeast nitrogen base, 0.2% dextrose, pH 7.0 with 50 mM MOPs)+1% DMSO prior to addition to the plates for the inhibition assays.
C. neoformans growth inhibition assays. Compounds were tested in a limiting dilution assay with a starting optical density (at 650 nm) of 0.001 in YNB-02 plus 1% DMSO. Cells plus compound were incubated in 96-well clear round bottom plates covered with a Breath-easy® membrane without shaking for 48 hours at 35° C. Before measuring cell density, plates were shaken on a microtiter plate shaker at 900 rpm for 3 minutes to resuspend cells and optical density was measured at 650 nm. […] Each assay was done in triplicate and all values are the average of two or more independent assays. The data are presented as the average cell density as a percent of DMSO-only treated cells. MICs are reported as the minimal concentration needed to inhibit 80% of C. neoformans growth relative to vehicle-treated controls.

HSV-1 = assay: Anti-HSV-1 replication assay (Vero cells, plaque titer); type: cell-based, herpes simplex virus 1; details: for log reduction at 5 µM / log reduction at 1 µM / log reduction at 0.33 µM: Human alphaherpesvirus 1, Vero, Table 2 amides; for log reduction at 5 µM: compound at 5 μM, read-out: HSV-1 suppression 5 μM; for log reduction at 5 µM / log reduction at 1 µM: values separated by / are repeats; for log reduction at 1 µM: compound at 1 μM, read-out: HSV-1 suppression 1 μM; for log reduction at 0.33 µM: compound at 0.33 μM, read-out: HSV-1 suppression 0.33 μM
in vitro = details: human, HepDES19 cells
Description: Cells used for toxicity and HBV studies. […] Cells were maintained in Dulbecco's modified Eagle's medium (DMEM)/F12 media supplemented with 10% fetal bovine serum (FBS) and 1% penicillin/streptomycin (P/S) with 1 μg/mL tetracycline. Synchronized expression of HBV pgRNA was induced by removing tetracycline from the culture medium.
Cytotoxicity Assays. Qualitative assessments of cytotoxicity were done visually by inspecting the cells in the primary screening assays. […] The next day the compounds were added at 0.78 to 100 μM in a final concentration of 1% (v/v) DMSO, and the cells were incubated for 24 hours under conditions identical to those employed for the viral replication inhibition assays. Mitochondrial toxicity was measured by incubating the cells with 0.25 mg/mL thiazolyl blue tetrazolium bromide (MTT, SigmaAldrich Chemical Co.), the cultures were incubated for 60 mM, metabolites were solubilized in acidic isopropanol, and absorbance was read at 570 nm. CC50 values were calculated by non-linear curve fitting using GraphPad Prism using the three-parameter variable-response log(inhibitor)-versus-response algorithm with the bottom value set to zero.

human RNaseH1 = molecular target: T1, human RNaseH1 (Homo sapiens, UniProt O60930); assay: Biochemical inhibition of human RNaseH1 activity; details: Table 2 amides; read-out: HuRH1 IC50
T1 sequence (O60930 1-286): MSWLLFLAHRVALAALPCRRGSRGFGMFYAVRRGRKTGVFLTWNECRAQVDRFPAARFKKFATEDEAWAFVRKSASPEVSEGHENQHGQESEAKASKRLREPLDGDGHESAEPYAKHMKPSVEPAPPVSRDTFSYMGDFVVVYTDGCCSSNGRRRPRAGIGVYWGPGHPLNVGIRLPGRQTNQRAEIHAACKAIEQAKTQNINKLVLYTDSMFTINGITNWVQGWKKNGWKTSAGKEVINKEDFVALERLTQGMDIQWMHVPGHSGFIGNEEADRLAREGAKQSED
Description: Biochemical inhibition of human RNaseH1 activity. Quantitative inhibition of the human RNaseH1 in the biochemical assays was assessed using a molecular beacon assay as described previously (Edwards et al., 2017). Recombinant human RNaseH 1 (0.3 μg) was incubated with 100 nM RNA:DNA substrate, 50 mM HEPES pH 8.0, 100 mM NaCl, 2 mM Tris(2-carboxyethyl)phosphine hydrochloride (TCEP), 0.05% Tween20, 5 units of RNaseOut, test compounds (0 to 500 μM), and 5% DMSO in a 100 μL reaction volume. The substrate was formed by annealing a complementary RNA oligonucleotide to a hairpin DNA oligonucleotide to hold the hairpin DNA oligonucleotide in an open conformation. The DNA oligonucleotide has a 5′ fluorescein reporter and a 3′ black hole quencher. When the RNA is degraded from the substrate the DNA oligonucleotide closes to form a hairpin structure, decreasing in signal intensity. Reactions were initiated with 5 mM MgCl2 and fluorescence was read using a Synergy HTS multi-mode plate reader at 37° C. Alternatively, the HBV RNaseH version used was MBP-HRHgtCΔ5, a genotype C isolate which lacks the C-terminal 35 amino acids of the HBV RNaseH domain that are predicted to be unstructured. Quantitative inhibition of the human RNaseH1 in biochemical assays was assessed using a FRET-based RNaseH assay under conditions previously reported for an RNaseH molecular beacon assay (Edwards et al., 2017). […] Cleavage of the RNA strand released the fluorescein from quenching, increasing fluorescence. Reactions were monitored for 90 min at 37° C. in a plate reader and initial reaction rates were calculated. Reactions contained escalating concentrations of the compounds.

Row | SMILES | MIC80 [1] | log reduction at 5 µM (HSV-1) | CC50 at 24 h (in vitro; CC50 (μM), Table 2 amides, MTT) | IC50 (human RNaseH1) | CC50 at 24 h (in vitro; CC50) | Reduction of HSV-1 titers / suppression of HSV-1 replication at 5 μM (HSV-1; 5 μM, plaque forming units (PFU)/ml) | log reduction at 1 µM (HSV-1) | log reduction at 0.33 µM (HSV-1)
1 | Cc1cc(O)c(=O)c(O)cc1C(=O)NCc1ccccc1 [compound 388] | 9 µM (≈ 2.57 µg/mL) | 0.05 | 19.8 ± 3 µM | 166 ± 104 µM |  |  |  | 
2 | Cc1cc(O)c(=O)c(O)cc1C(=O)Nc1ccccc1 [compound 389] | 5.3 µM (≈ 1.44 µg/mL) | 0.43 | 21.2 ± 9.5 µM | 78.4 ± 47.2 µM | > 20 µM |  |  | 
3 | Cc1cc(O)c(=O)c(O)cc1C(=O)NCc1ccc(-c2ccccc2)cc1 [compound 539] | 4.5 µM (≈ 1.63 µg/mL) | 5.3 | 3.6 ± 1.8 µM | 50 ± 9 µM | 1.8 µM | more than 5 log10 | 0.52 | 
4 | Cc1cc(O)c(=O)c(O)cc1C(=O)NCCCc1ccccc1 [compound 708] | 18 µM (≈ 5.64 µg/mL) | 0.04 | 22.6 ± 12.8 µM | 267 ± 11.7 µM |  |  |  | 
5 | Cc1cc(O)c(=O)c(O)cc1C(=O)N1CCS(=O)(=O)C1 [compound 709] | 50 µM (≈ 15 µg/mL) | -0.27 | 19.5 ± 6.7 µM | 84.8 ± 6.7 µM |  |  |  | 
6 | COC(=O)[C@@H](NC(=O)c1cc(O)c(=O)c(O)cc1C)C(C)C [compound 793] | 18 µM (≈ 5.57 µg/mL) |  | 18.3 ± 9.8 µM | 178 ± 46.6 µM |  |  |  | 
7 | COC(=O)[C@H](CC(C)C)NC(=O)c1cc(O)c(=O)c(O)cc1C [compound 794] | 9 µM (≈ 2.91 µg/mL) |  | 14.7 ± 9.6 µM | 48.1 ± 15.4 µM |  |  |  | 
8 | COC(=O)[C@H](Cc1ccccc1)NC(=O)c1cc(O)c(=O)c(O)cc1C [compound 795] | 9 µM (≈ 3.22 µg/mL) |  | 12.7 ± 5.5 µM | 43.5 ± 14.8 µM |  |  |  | 
9 | COC(=O)[C@H](Cc1c[nH]c2ccccc12)NC(=O)c1cc(O)c(=O)c(O)cc1C [compound 797] | 9 µM (≈ 3.57 µg/mL) |  | 13.9 ± 13.3 µM | 44 ± 27.1 µM |  |  |  | 
10 | Cc1cc(O)c(=O)c(O)cc1C(=O)Nc1ccc(Cc2ccccc2)cc1 [compound 798] | 1.2 µM (≈ 0.434 µg/mL) | 4.39 | 3.3 ± 1.8 µM | 467 µM | 3.3 µM |  | 2.32 | -0.0103
11 | Cc1cc(O)c(=O)c(O)cc1C(=O)Nc1cccc(Cc2ccccc2)c1 [compound 799] | 2 µM (≈ 0.723 µg/mL) | 3.88 | 5.3 ± 3.1 µM | 713 ± 496 µM |  |  | 0.411 | 0.0848
12 | Cc1cc(O)c(=O)c(O)cc1C(=O)NCc1cccs1 [compound 801] | 50 µM (≈ 14.6 µg/mL) |  | 61.1 ± 22.8 µM | 833 ± 289 µM |  |  |  | 
13 | CCS(=O)(=O)N1CCN(C(=O)c2cc(O)c(=O)c(O)cc2C)CC1 [compound 802] | 50 µM (≈ 17.8 µg/mL) |  | 27.1 ± 31.2 µM | 76.5 ± 46.9 µM |  |  |  | 
14 | Cc1cc(O)c(=O)c(O)cc1C(=O)N1CCN(c2oc(-c3ccco3)nc2C#N)CC1 [compound 803] | 32 µM (≈ 13.5 µg/mL) |  | 23.7 ± 22.9 µM | 36.3 ± 4 µM |  |  |  | 
15 | Cc1cc(O)c(=O)c(O)cc1C(=O)NCC1CCN(C(=O)OC(C)(C)C)CC1 [compound 805] | 9 µM (≈ 3.53 µg/mL) |  | 19.5 ± 10.8 µM | 77 ± 30.8 µM |  |  |  | 
16 | COc1ccc(CNC(=O)c2cc(O)c(=O)c(O)cc2C)cc1 [compound 806] | 4.6 µM (≈ 1.45 µg/mL) |  | 15.9 ± 6.9 µM | 61.4 ± 15.9 µM |  |  |  | 
17 | Cc1cc(O)c(=O)c(O)cc1C(=O)NCc1ccc(Oc2ccccc2)cc1 [compound 807] | 4.5 µM (≈ 1.7 µg/mL) | 4.54 | 6 ± 6.5 µM | 799 ± 403 µM |  |  | -0.11 | 0.0714
18 | Cc1cc(O)c(=O)c(O)cc1C(=O)NCC1COC(C)(C)O1 (stereo not shown) [compound 808] | 9 µM (≈ 2.78 µg/mL) |  | 14.9 ± 8.6 µM | 71.9 ± 12 µM |  |  |  | 
